Broadly, the IC50 is the concentration that gives 50% inhibition.

Test [1] relates to MV-4-11 (carrying MLL-AF4). Nature of the test: Inhibition of proliferation of human tumor cells (Alamar Blue, 7 days), MV-4-11. In kind it is cell-based. Conditions: Homo sapiens, MV4-11, 168 h, MV-4-11 cells (carrying MLL-AF4), method calls the value GI50. In a few lines: (§1)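 GI50 values reflect growth inhibition over 7 days, read by Alamar Blue. Seeding density was 4,000 cells/well except KG-1a (3,000 cells/well); each line grew in its own FBS-containing medium at 37°C.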
In general terms: The colour change of resazurin is a common sign of viable cells or microbes.

The target of another test is T1, Menin-MLL (Homo sapiens, UniProt O00255).
T1 construct: His-Menin (M1-L615 end); purchased BIORTUS BP9210
T1 sequence (O00255 1-615 isoform O00255-1): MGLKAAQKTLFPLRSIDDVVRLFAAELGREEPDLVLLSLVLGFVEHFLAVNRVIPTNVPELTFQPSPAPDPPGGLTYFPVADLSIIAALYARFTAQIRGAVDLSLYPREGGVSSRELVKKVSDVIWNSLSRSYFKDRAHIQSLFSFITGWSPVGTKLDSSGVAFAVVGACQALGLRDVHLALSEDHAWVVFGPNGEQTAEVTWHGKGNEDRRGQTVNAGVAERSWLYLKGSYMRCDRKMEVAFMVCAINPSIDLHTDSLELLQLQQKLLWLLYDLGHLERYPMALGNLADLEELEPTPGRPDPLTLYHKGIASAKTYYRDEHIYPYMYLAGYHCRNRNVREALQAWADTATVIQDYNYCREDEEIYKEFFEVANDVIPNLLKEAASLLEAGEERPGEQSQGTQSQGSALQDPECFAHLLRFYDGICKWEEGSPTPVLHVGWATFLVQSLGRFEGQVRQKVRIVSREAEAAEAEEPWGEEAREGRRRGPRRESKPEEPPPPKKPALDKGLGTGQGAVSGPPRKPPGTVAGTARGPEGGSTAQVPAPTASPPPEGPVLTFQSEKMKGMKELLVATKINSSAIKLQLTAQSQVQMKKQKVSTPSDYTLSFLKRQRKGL
Nature of the test: Inhibitory activity against Menin-MLL binding (fluorescence polarization). Conditions: 150 nM His-Menin, 15 nM FITC-MLL, 25°C for 60 min. In a few lines:
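Fluorescence polarization competition: compound and 150 nM His-tagged menin (residues M1-L615) sit 15 min at 25 °C in pH 7.5 HEPES buffer with NaCl, DTT and BSA; 15 nM FITC-labelled MLL peptide then binds for 60 min. IC50 fitted sigmoidally from mP values, duplicate wells.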
A general note: Fluorescence polarisation rises when a labelled molecule tumbles more slowly, as on binding a larger partner.

Another test relates to KG-1a (wild-type MLL). Nature of the test: Inhibition of proliferation of human tumor cells (Alamar Blue, 7 days), KG-1a control cell line. In kind it is cell-based. Conditions: 168 h, KG-1a cells (wild-type MLL, control cell line), method calls the value GI50. The source says: Experimental Example 2: Evaluation of Inhibitory Activity of Compounds Against Proliferation of Human Tumor Cells
• Human acute lymphoblastic leukemia cells MV-4-11, purchased from American Type Culture Collection, Catalog Number: CRL-9591; • Human acute myeloid leukemia cells MOLM-13, purchased from COBIOER BIOSCIENCES CO., LTD, Catalog Number: CBP60678; • Human acute myeloid leukemia cells KG-1a, purchased from American Type Culture Collection, Catalog Number: CCL-246.1; • Inverted Microscope, purchased from Olympus Tokyo; • Countess™ Automated Cell Counter, purchased from Invitrogen, Model: C10281; and • Multilabel Reader, purchased from Bio-Tek, Model: Synergy HT.
MV-4-11 cells were cultured in an IMDM medium containing 10% fetal bovine serum, KG-a cells were cultured in an IMDM medium containing 20% fetal bovine serum, or MOLM-13 cells were cultured in an RPMI-1640 medium containing 20% fetal bovine serum, each supplemented with 100 U·mL^-1 penicillin and 100 µg·mL^-1 streptomycin. These cells were cultured at 37°C with 5% CO2. The suspensions of individual cell lines were prepared in their respective media and seeded into 96-well plates at a density of 4,000 cells/well for MV-4-11 and MOLM-13 cells, or 3,000 cells/well for KG-1a cells. On the day of the experiment, a compound stock solution was diluted in a 3-fold or 4-fold gradient using DMSO. Each gradient-diluted stock solution was then further diluted 250-fold with a complete medium to prepare a series of working solutions at different concentrations. Subsequently, 100 µL of working solution (containing a 2-fold concentration series of the test compound) was added to each well, with duplicate wells set up for each concentration.
Seven days after compound addition (on Day 7), an Alamar Blue assay reagent (MCE, HY-111391 / CS-0040317) was added to measure the fluorescence intensity in each well. Wells containing the cells in the growth medium supplemented with 0.1% DMSO (Day 7) served as high-read control wells. The readouts from the wells containing the cells in the growth medium supplemented with 0.1% DMSO on the day of compound addition (Day 0) served as low-reading control well. GraphPad Prism software was used to calculate the concentration required to inhibit 50% of cell proliferation (GI50), which serves as a cell proliferation inhibition activity index.

The test system of test [2] is MOLM-13 (carrying MLL-AF9). Briefly: Inhibition of proliferation of human tumor cells (Alamar Blue, 7 days), MOLM-13. As to conditions: Homo sapiens, MOLM-13 cells (carrying MLL-AF9), method calls the value GI50. In kind it is cell-based. Summed up: as §1
The mark [3] stands for this setting: fluorescence polarization, read-out: Menin-MLL IC50.
[4] abbreviates: Menin-MLL IC50, fluorescence polarization.

SMILES strings stand for the structures. Where two headings read alike, the source gives them in different places.

Turning to `COCCN(C)CCCC(C(C)C)N1CC(c2cc(-c3ccc(F)cc3C(=O)N3CCOC[C@H]3C)c3cnn(C)c3c2)C1` (some centres unmarked) [Example 162], the half-maximal inhibitory concentration (IC50) amounted to 0.027 µM in test [1], 0.024 µM at Menin-MLL (setting [3]), 7 µM in the test with KG-1a (wild-type MLL) and 0.067 µM in test [2] (168 h).

For `COCCN(C)CCCC(C(C)C)N1CC(c2cc(-c3ccc(F)cc3C(=O)N(CC(F)F)C(C)C)c3cnc(C)n3c2)C1` (centres unmarked) [Example 149], the IC50 came out at 0.0021 µM in test [1], 0.0085 µM on Menin-MLL (setting [3]), 5.3 µM with KG-1a (wild-type MLL) and 0.0083 µM in test [2] (168 h).

In the case of `Cc1cncc2c(-c3ccc(F)cc3C(=O)N3CCOC[C@H]3C)cc(CC3CN(CC4CCN(C(=O)C5CC5)CC4)C3)n12` [Example 286, (3R)-4-{2-[6-({1-[(1-cyclopropanecarbonylpiperidin-4-yl)methyl]azacyclobutan-3-yl}methyl)-4-methylpyrrolo[1,2-a]pyrazin-8-yl]-5-fluorobenzoyl}-3-methylmorpholine], the IC50 in test [1] was 0.0046 µM; on Menin-MLL (setting [3]) it was 0.0035 µM; with KG-1a (wild-type MLL) it was 20 µM; in test [2] (168 h) it was 0.019 µM.

Take `CCN(C(=O)c1cc(F)ccc1-c1cc([C@H]2CC[C@H](NCc3ccc(-c4cc(OC)c(OC)nn4)cc3)CC2)cn2cncc12)C(C)C` [Example 18-2, N-ethyl-5-fluoro-N-(isopropyl)-2-{6-[(1r,4r)-4-({[4-(5,6-dimethoxypyridazin-3-yl)phenyl]methyl}amino)cyclohexyl]imidazo[1,5-a]pyridin-8-yl}benzamide]: the IC50 was found to be 0.0094 µM in test [1]; 0.0055 µM at Menin-MLL (setting [4]); 6.5 µM in the test on KG-1a (wild-type MLL); 0.043 µM in test [2] (MOLM-13, 168 h).

Take `Cc1nc(F)c2c(-c3ccc(F)cc3C(=O)N3CCOC[C@H]3C)cc(C3CN([C@@H](C)C4CCN(C(=O)CC#N)CC4)C3)cn12` [Example 263-2]: the half-inhibitory concentration (IC50) came to 0.0053 µM in test [1], 0.007 µM on Menin-MLL (setting [3]), 20 µM in the test with KG-1a (wild-type MLL) and 0.013 µM in test [2] (168 h).

For the compound `COCC1CN(CCC[C@H](C(C)C)N2CC(c3cc(-c4ccc(F)cc4C(=O)N4CCOC[C@H]4C)c4c(F)nc(C)n4c3)C2)C1` [Example 203], the IC50 in test [1] was 0.0021 µM; on Menin-MLL (setting [3]), 0.0033 µM; in the test on KG-1a (wild-type MLL), 20 µM; in test [2] (168 h) it was 0.0056 µM.

Turning to `CCC(=O)N1CCC(CN2CC(Cc3cc(-c4ccc(F)cc4C(=O)N4CCOC[C@H]4C)c4cncc(C)n34)C2)CC1` [Example 287], the IC50 in test [1] was 0.009 µM; on Menin-MLL (setting [3]), 0.006 µM; in the test on KG-1a (wild-type MLL), 20 µM; in test [2] (168 h), 0.048 µM.

On to `Cc1ncc2c(-c3ccc(F)cc3C(=O)N(C(C)C)C3CC3)cc(N3CCN(C(=O)C4NC5CCC4CC5)CC3)cn12` [Example 72, N-cyclopropyl-5-fluoro-2-(3-methyl-6-{4-[(1R,3S,4S)-2-azabicyclo[2.2.2]octan-3-carbonyl]piperazin-1-yl}imidazo[1,5-a]pyridin-8-yl)-N-(isopropyl)benzamide], for which the half-inhibitory concentration (IC50) in test [1] worked out at 0.057 µM; on Menin-MLL (setting [4]), 0.054 µM; in the test on KG-1a (wild-type MLL) it was 20 µM.

Consider `CCN(C(=O)c1cc(F)ccc1-c1cc(N2CCC(NCc3ccc(-c4cc(OC)c(OC)nn4)cc3)CC2)cn2cncc12)C(C)C` [Example 19, 2-{6-[4-({[4-(5,6-dimethoxypyridazin-3-yl)phenyl]methyl}amino)piperidin-1-yl]imidazo[1,5-a]pyridin-8-yl}-N-ethyl-5-fluoro-N-isopropylbenzamide], for which the results for the 50% inhibitory concentration (IC50) (in test [1]; on Menin-MLL (setting [3]); in the test with KG-1a (wild-type MLL)) were 0.049 µM, 0.0435 µM and 20 µM, respectively.

Regarding `Cc1nc(F)c2c(-c3ccc(F)cc3C(=O)N3CCOC[C@H]3C)cc(C3CN([C@H](CC[C@@H]4CNCCO4)C(C)C)C3)cn12` [Example 245-1, (3R)-4-[5-fluoro-2-(1-fluoro-3-methyl-6-{1-[(3R)-4-methyl-1-[(2R)-morpholin-2-yl]pentan-3-yl]azacyclobutan-3-yl}imidazo[1,5-a]pyridin-8yl)benzoyl]-3-methylmorpholine], the concentration for half-maximal inhibition (IC50) worked out at 0.0066 µM in test [1], 0.0085 µM at Menin-MLL (setting [3]), 20 µM in the test with KG-1a (wild-type MLL) and 0.04 µM in test [2] (168 h).

With `CCN(C(=O)c1cc(F)ccc1-c1cc([C@@H]2CCN(C[C@H]3CC[C@H](NS(=O)(=O)CC)CC3)C2)cn2cncc12)C(C)C` [Example 22-2], the IC50 stood at 0.022 µM in test [1], 0.014 µM at Menin-MLL (setting [4]) and 20 µM in the test with KG-1a (wild-type MLL).

Take `CCN(C(=O)c1cc(F)ccc1-c1cc(C2CCN(C[C@H]3CC[C@H](NS(=O)(=O)CC)CC3)C2)cc2c1cnn2C)C(C)C` (some centres unmarked) [Example 15, N-ethyl-5-fluoro-2-[1-methyl-6-(1-{[(1r,4r)-4-ethanesulfonamidocyclohexyl]methyl}pyrrolidin-3-yl)-1H-indazol-4-yl]-N-isopropylbenzamide]: the IC50 in test [1] was found to be 0.023 µM; on Menin-MLL (setting [4]), 0.0115 µM; in the test on KG-1a (wild-type MLL) it was 17 µM.

For `CCN(C(=O)c1cc(F)ccc1-c1cc(C2=CCC(NCc3ccc4oc(=O)[nH]c4c3)CC2)cn2cncc12)C(C)C` (centres unmarked) [Example 16, N-ethyl-5-fluoro-2-[6-(4-{[(2-oxo-2,3-dihydro-l,3-benzoxazol-5-yl)methyl]amino}cyclohexyl-1-ene-1-yl)imidazo[1,5-a]pyridin-8-yl]-N-isopropylbenzamide], the IC50 in test [1] turned out to be 0.014 µM; at Menin-MLL (read-out: Menin-MLL IC50, fluorescence polarization), 0.0145 µM; in the test with KG-1a (wild-type MLL), 20 µM.

For the compound `CCN(C(=O)c1cc(F)ccc1-c1cc(N2CCC(NCc3ccc(-c4cc(OC)c(OC)nn4)cc3F)CC2)cn2cncc12)C(C)C` [Example 20], the IC50 turned out to be 0.054 µM in test [1], 0.045 µM at Menin-MLL (setting [3]) and 20 µM in the test with KG-1a (wild-type MLL).

`CCN(C(=O)c1cc(F)ccc1-c1cc([C@@H]2CCN(C[C@H]3CC[C@H](NS(=O)(=O)CC)CC3)C2)cc2cncn12)C(C)C` [Example 25-1, N-ethyl-5-fluoro-N-isopropyl-2-{7-[(3S)-1-{[(1r,4r)-4-ethanesulfonamidocyclohexyl]methyl}pyrrolidin-3-yl]imidazo[1,5-a]pyridin-5-yl}benzamide]: the IC50 worked out at 0.0047 µM in test [1], 0.0057 µM at Menin-MLL (setting [4]) and 12.6 µM with KG-1a (wild-type MLL).

Values taken from patent EP4782453A1 (Beyang Therapeutics Co., Ltd., priority 2023, dated 2025).
